Reference: ChEMBL document CHEMBL5143630, “α-Synuclein binding activity of the plant growth promoter asterubine” (Bioorg Med Chem Lett, 2022)
The source made the active and inactive calls. The rule behind the calls is not given here.

Tests used:
[1] = Cytotoxicity against preformed fibrils-treated mouse TH-positive dopaminergic neurons at 0.1 to 10 uM incubated for 7 days by immunostaining analysis; type: toxicity, cell-based; conditions: neuron, 168 h, dose 0.1-10 µM, time 7 day
[2] = target: Alpha-synuclein (Homo sapiens) (UniProt P37840); test: Binding affinity to human alpha-synuclein expressed in Escherichia coli BL21(DE3) assessed as compound-protein complex formation at ratio of 1:1 incubated at compound:protein ratio of 10:1 for 3 hrs by ESI-MS spectrum analysis

CN(C)C(=N)NCCS(=O)(=O)O
Activity [1]: Non-Toxic | Activity [2]: Active
